In US12509463B2, “JAK inhibitor and preparation method therefor” (FELICAMED BIOTECHNOLOGY CO., LTD., priority 2019, dated 2025):

How the values were obtained:
JAK1 = target: T1, JAK1 (Homo sapiens, UniProt P23458); assay: JAK1 enzymology experiment (HTRF KinEASE-TK); assay type: biochemical; conditions: JAK1 enzyme activity, 10 uM ATP, 19.76 nM JAk1, 30 min at 25° C., HTRF 665/615; read-out: Relative IC50
T1 construct: purchased Thermo PV4774
Method: JAK1 is a protein tyrosine kinase, and purchased from Thermo (Cat #PV4774). ATP was purchased from Thermo […] was purchased from Selleck (Cat #55001), and HTRF KinEASE-TK kit was purchased from Cisbio (Cat #62TKOPEC).
HTRF®KinEASE™-TK was a universal method to measure activity of tyrosine kinase by a substrate and a universal detection system. The reaction was performed in a 384-well plate (Greiner, Cat #784075), and the total reaction system was 20 ul. The reaction system mainly included a 1× kinase buffer solution, 5 mM MgCl2, 0.625 mM EGTA, 0.06 uM SEB, 1 mM DTT, 0.01% Brij-35, 1 uM TK-Sub-biotin and 10 uM ATP. The compounds prepared in Examples 1-8 and the control compound Oclacitinib were continuously diluted by DMSO to 10 concentration points, and then 100 nl was transferred to a test plate. After 19.76 nM JAk1 was added, the reaction started, 30 min after reaction at 25° C., a detection reagent was added to terminate the reaction (0.25×TK Antibody, 62.5 nM Streptavidin-XL665). After standing for 60 min at room temperature, FRET signal was read out on a Spark 10M or an envision plate reader. (HTRF 665/615=665 nm signal value/615 nm signal value).
665/615 signal ratio was converted to percentage inhibition. […]

Canine PBMC cells = assay: IL-2 and ConA induced proliferation of canine PBMC cells (flow cytometry, CD4+ population); assay type: cell-based; conditions: Canis lupus familiaris, CFSE stained, IL-2 and concanavalin A, 120 h, MFI of CD4+ population, read-out: Cell IC50
Method: Recombinant canine IL-2 (Cys147Ser) protein was purchased from R&D (Cat #1815-CL-020/CF). Canine CD4 Alexa Fluor 647-conjugated antibody was purchased from R&D […] A from Canavalia ensiformis (Jack bean) was purchased from Sigma (Cat #C5275-5MG). Oclacitinib maleate was purchased from AbMole Bioscience (Cat #M5827). PBMC cells were purchased from AllCells (Cat #DPB-002).
Flow cytometry is a technology used for detecting and measuring physical and chemical characteristics of populations of cells or particles. Canine PBMC was collected and stained with CFSE, and then the cells (1×10*5 cells/well) were inoculated onto a 96-well plate and incubated for 1 h in a 5% CO2 incubator at 37° C. […] Afterwards, cells were collected and stained with canine CD4 Alexa Fluor 647-conjugated antibodies.
Samples containing cells were resuspended by a staining buffer and injected into a flow cytometry. […] When cells passed through laser beam, a detector detected the scattered light of the cells or particles. The front detector detected forward scatter (FS), multiple detectors placed on the side detected side scatter (SS); and a fluorescence detector detected fluorescence emitted by the stained cells or particles. […]
CD4^+ was circled from lymphocyte populations. MFI of the CD4^+ population was calculated. […]

[1] = system: pruritus caused by atopic dermatitis; conditions: dogs, cited from earlier work

T1 sequence (P23458 866-1154 limits assumed): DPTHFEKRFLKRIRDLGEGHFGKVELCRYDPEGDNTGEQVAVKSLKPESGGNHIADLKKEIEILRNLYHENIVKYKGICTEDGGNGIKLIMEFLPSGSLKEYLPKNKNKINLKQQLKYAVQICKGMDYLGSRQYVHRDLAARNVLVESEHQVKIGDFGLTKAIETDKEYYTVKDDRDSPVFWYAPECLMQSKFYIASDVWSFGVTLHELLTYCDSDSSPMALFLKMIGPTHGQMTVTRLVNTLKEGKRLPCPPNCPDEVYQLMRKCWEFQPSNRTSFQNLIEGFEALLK

IC50 (JAK1): 12.9 nM
SMILES: CNS(=O)(=O)C[C@H]1CC[C@H](N(C)c2ncnc3[nH]ccc23)CC1 [Oclacitinib]
IC50 (Canine PBMC cells): 447 nM
laboratory animals with more than 50% pruritus reaction relieved ([1]; on the 7th day of treatment): exceeding 70%
time to relieve itching ([1]; oral 0.4-0.6 mg/kg twice a day): ≤ 24 h
treatment of pruritus caused by atopic dermatitis ([1]; oral 0.4-0.6 mg/kg twice a day): safe and effective
